# Reference: patent publication US7642277B2, “Non-nucleoside reverse transcriptase inhibitors” (Boehringer Ingelheim International GmbH, priority 2002, dated 2010)
# Biological target: T1, HIV-1 RT enzyme (wild type) (Human immunodeficiency virus type 1 group M subtype B, UniProt P04585)
# T1 construct: The reverse transcriptase (RT) enzyme assay has been adapted to a 96-well microtiter plate format
# Assay: Reverse transcriptase (RT) enzymatic assay (IC50), PicoGreen fluorescence, wild type
# Assay type: biochemical
# Settings: RT enzymatic assay, wild type; read-out: IC50 WT
# Experimental: Reverse Transcriptase (RT) Assays Enzymatic Assay (IC50)
# The enzymatic assay employed is described as follows: The reverse transcriptase (RT) enzyme assay has been adapted to a 96-well microtiter plate format and uses PicoGreen™ as a fluorescent intercalator. More explicitly, the HIV-1 RT enzyme was thawed and appropriately diluted into Tris/HCl 50 mM pH 7.8 containing NaCl 60 mM, MgCl2∘6H2O 2 mM, DTT 6 mM, GSH 2 mM and 0.02% w/v Chaps to give ≈10 nM enzyme. […] The plate was pre-incubated for 15 minutes at room temperature before proceeding to the next step. […] Then the enzymatic reaction was initiated by addition of 20 μL of substrate solution. […] After addition of the substrate cocktail, the plate was covered with a plastic seal and incubated for 50 minutes at 37° C. in a dry incubator. The reaction was then quenched by addition of 5 μL of EDTA 0.5 M. The plate was shaken for 30 seconds at medium speed and incubated for 5 minutes at room temperature. Then 160 μL of PicoGreen™ 1:400 dilution from commercial stock (diluted in Tris 20 mM pH 7.5 with EDTA 1 mM) was added and the plate was shaken for 30 seconds and incubated for 10 minutes at room temperature. […] Each row contained at its extremities a blank and a control well.
# Table legend: A=>100; B=100-50; C=<50; NT=not tested
row,SMILES,IC50 [nM]
1,CC(C)c1ccccc1NC(=O)CSc1nnnn1-c1cccc2ccccc12 [Entry 204],> 100
2,O=C(CNCc1nnnn1-c1cccc2ccccc12)Nc1ccccc1[N+](=O)[O-] [Entry 337],> 100
3,O=[N+]([O-])c1ccccc1OCCSc1nnnn1-c1cccc2ccccc12 [Entry 320],> 100
4,O=C(CSc1nnnn1-c1cccc2ccccc12)Nc1c(Cl)cccc1Cl [Entry 241],> 100
5,O=C(CCCc1nnnn1-c1cccc2ccccc12)Nc1ccccc1[N+](=O)[O-] [Entry 306],> 100
6,O=C(CSc1nnnn1-c1cccc2ccccc12)Nc1ccccc1-c1ccccc1 [Entry 206],> 100
7,Cc1cccc(NC(=O)CSc2nnnn2-c2cccc3ccccc23)c1C [Entry 228],> 100
8,COC(=O)c1cccc(-n2nnnc2SCC(=O)Nc2ccccc2[N+](=O)[O-])c1 [Entry 120],> 100
9,c1ccc2c(-n3nnnc3SCc3nc4ccccc4[nH]3)cccc2c1 [Entry 339],> 100
10,O=C(CSc1nnnn1-c1cccc2ccccc12)Nc1cccnc1 [Entry 244],> 100
11,O=C(NCCSc1nnnn1-c1cccc2ccccc12)c1ccccc1Cl [Entry 331],> 100
12,NS(=O)(=O)c1ccccc1NC(=O)CSc1nnnn1-c1cccc2ccccc12 [Entry 220],> 100
13,O=C1c2ccccc2C(=O)N1CCSc1nnnn1-c1cccc2ccccc12 [Entry 341],> 100
14,O=C(CSc1nnnn1-c1cccc2ccccc12)Nc1ccc(-c2ccccc2)cc1 [Entry 226],> 100
15,Cc1ccc(NC(=O)CSc2nnnn2-c2cccc3ccccc23)c(C)c1 [Entry 233],> 100
16,O=C(CSc1nnnn1-c1cccc2ccccc12)Nc1cccc([N+](=O)[O-])c1 [Entry 223],> 100
17,COc1ccc(NC(=O)CSc2nnnn2-c2cccc3ccccc23)cc1 [Entry 224],> 100
18,O=C(CSc1nnnn1-c1cccc2ccccc12)Nc1ccccc1C(F)(F)F [Entry 214],> 100
19,CSc1ccccc1NC(=O)CSc1nnnn1-c1cccc2ccccc12 [Entry 218],> 100
20,O=C(CSc1nnnn1-c1cccc2ccccc12)Nc1ccccc1N1CCOCC1 [Entry 221],> 100
21,Cc1ccccc1NC(=O)CSc1nccn1-c1cccc2ccccc12 [Entry 414],> 100
22,O=C(CSCc1nnnn1-c1cccc2ccccc12)Nc1ccccc1[N+](=O)[O-] [Entry 335],> 100
23,Cc1ccccc1-c1ccc(-n2nnnc2SCC(=O)Nc2ccccc2[N+](=O)[O-])c(C)c1 [Entry 132],> 100
24,O=C(OCCSc1nnnn1-c1cccc2ccccc12)c1ccccc1[N+](=O)[O-] [Entry 322],> 100
25,O=[N+]([O-])c1ccccc1CCSc1nnnn1-c1cccc2ccccc12 [Entry 310],> 100
26,O=C(CSc1nnnn1-c1cccc2ccccc12)NCc1ccccc1[N+](=O)[O-] [Entry 344],> 100
27,O=C(CSc1nnnn1-c1cccc2ccccc12)Nc1cccc(Cl)c1F [Entry 232],> 100

row,SMILES,IC50 [nM]
1,COc1ccc(-n2nnnc2SCC(=O)Nc2ccccc2[N+](=O)[O-])c(OC)c1 [Entry 131],> 100
2,CC(=O)c1ccccc1NC(=O)CSc1nnnn1-c1cccc2ccccc12 [Entry 215],> 100
3,O=[N+]([O-])c1cccc2[nH]c(CSc3nnnn3-c3cccc4ccccc34)nc12 [Entry 340],> 100
4,O=C(C[S+]([O-])c1ccccc1-c1cccc2ccccc12)Nc1ccccc1Cl (stereo not shown) [Entry 407],> 100
5,O=C(NCCSc1nnnn1-c1cccc2ccccc12)Nc1ccccc1[N+](=O)[O-] [Entry 333],> 100
6,O=C1C(Sc2nnnn2-c2cccc3ccccc23)CCN1c1ccccc1Cl (stereo not shown) [Entry 346],> 100
7,O=C(CSc1nnnn1-c1cccc2ccccc12)Nc1ccc([N+](=O)[O-])cc1 [Entry 227],> 100
8,O=C(CSc1nnnn1-c1cccc2ccccc12)Cc1ccccc1[N+](=O)[O-] [Entry 345],> 100
9,Cc1cc(C)c(-n2nnnc2SCC(=O)c2ccc3c(c2)OCO3)c(C)c1 [Entry 423],> 100
10,O=C(OCCSc1nnnn1-c1cccc2ccccc12)c1ccccc1Cl [Entry 323],> 100
11,O=[N+]([O-])c1ccccc1CNCCSc1nnnn1-c1cccc2ccccc12 [Entry 328],> 100
12,O=C(CSc1ccccc1Br)Nc1ccccc1Cl [Entry 426],> 100
13,O=C(CSc1nnnn1-c1cccc2ccccc12)Nc1ccccc1-n1cccc1 [Entry 222],> 100
14,O=C(CSc1nnnn1-c1cccc2ncccc12)Nc1ccccc1[N+](=O)[O-] [Entry 106],> 100
15,OC(CSc1nnnn1-c1cccc2ccccc12)C(O)c1ccccc1Cl (stereo not shown) [Entry 319],> 100
16,O=C(CCCc1nnnn1-c1cccc2ccccc12)Nc1ccccc1Cl [Entry 305],> 100
17,O=C(NCCSc1nnnn1-c1cccc2ccccc12)Nc1ccccc1Cl [Entry 334],> 100
18,CCc1ccccc1NC(=O)CSc1nnnn1-c1cccc2ccccc12 [Entry 203],> 100
19,O=C(CSc1nnnn1-c1cccc2ccccc12)Nc1ccc(O)cc1 [Entry 225],> 100
20,O=C(CSc1nnnn1-c1cccc2ccccc12)Nc1ccncc1 [Entry 245],> 100
21,O=C(CSc1nnnn1-c1cccc2ccccc12)Nc1cccc2c1CCCC2 [Entry 229],> 100
22,O=C(Nc1ccccc1[N+](=O)[O-])C1CC1c1nnnn1-c1cccc2ccccc12 (stereo not shown) [Entry 343],> 100
23,COc1ccccc1NC(=O)CSc1nnnn1-c1cccc2ccccc12 [Entry 212],> 100
24,O=C(COCc1nnnn1-c1cccc2ccccc12)Nc1ccccc1[N+](=O)[O-] [Entry 336],> 100
25,O=C(CSc1nnnn1-c1cccc2ccccc12)Nc1ccccn1 [Entry 243],> 100
26,O=[N+]([O-])c1ccccc1C(O)CSc1nnnn1-c1cccc2ccccc12 (stereo not shown) [Entry 309],> 100
27,O=C(C=Cc1nnnn1-c1cccc2ccccc12)Nc1ccccc1[N+](=O)[O-] [Entry 307],> 100

row,SMILES,IC50 [nM]
1,O=C(CNc1nnnn1-c1cccc2ccccc12)Nc1ccccc1[N+](=O)[O-] [Entry 303],> 100
2,CN(CCSc1nnnn1-c1cccc2ccccc12)C(=O)c1ccccc1Cl [Entry 332],> 100
3,O=C(CCC1=C(c2cccc3ccccc23)CCC1)Nc1ccccc1Cl [Entry 405],> 100
4,CN(C(=O)CSc1nnnn1-c1cccc2ccccc12)c1ccccc1Cl [Entry 342],> 100
5,CCOc1ccccc1NC(=O)CSc1nnnn1-c1cccc2ccccc12 [Entry 213],> 100
6,O=[N+]([O-])c1ccccc1/C=C/CSc1nnnn1-c1cccc2ccccc12 [Entry 312],> 100
7,O=C(CSc1nnnn1-c1cccc2ccccc12)Nc1ccccc1F [Entry 207],> 100
8,O=C(CCc1ccccc1-c1cccc2ccccc12)Nc1ccccc1Cl [Entry 410],> 100
9,Clc1ccccc1/C=C/CSc1nnnn1-c1cccc2ccccc12 [Entry 313],> 100
10,NC(=O)c1ccccc1NC(=O)CSc1nnnn1-c1cccc2ccccc12 [Entry 217],> 100
11,Clc1ccccc1OCCCSc1nnnn1-c1cccc2ccccc12 [Entry 324],> 100
12,O=[N+]([O-])c1ccccc1NCCCSc1nnnn1-c1cccc2ccccc12 [Entry 329],> 100
13,O=C(CSc1nnnn1Cc1ccc2ccccc2c1)Nc1ccccc1[N+](=O)[O-] [Entry 107],> 100
14,CN(CC(=O)Nc1ccccc1[N+](=O)[O-])Cc1nnnn1-c1cccc2ccccc12 [Entry 338],> 100
15,O=[N+]([O-])c1ccccc1NCCSc1nnnn1-c1cccc2ccccc12 [Entry 326],> 100
16,COC(=O)c1ccccc1NC(=O)CSc1nnnn1-c1cccc2ccccc12 [Entry 216],> 100
17,Clc1ccccc1CCCSc1nnnn1-c1cccc2ccccc12 [Entry 311],> 100
18,Cc1cccc(C)c1-n1nnnc1SCC(=O)Nc1ccccc1[N+](=O)[O-] [Entry 138],> 100
19,COc1ccccc1NC(=O)CSc1nccn1-c1cccc2ccccc12 [Entry 415],> 100
20,O=C(CSc1nnnn1-c1cccc2ccccc12)Nc1ccccc1Cc1ccccc1 [Entry 205],> 100
21,CN(CCSc1nnnn1-c1cccc2ccccc12)c1ccccc1[N+](=O)[O-] [Entry 327],> 100
22,O=C(CS(=O)(=O)c1ccccc1-c1cccc2ccccc12)Nc1ccccc1Cl [Entry 408],> 100
23,Clc1ccccc1OCCSc1nnnn1-c1cccc2ccccc12 [Entry 321],> 100
24,O=C(CSc1nc2ccccc2n1-c1ccccc1)Nc1ccccc1[N+](=O)[O-] [Entry 412],> 100
25,COc1cc(NC(=O)CSc2nnnn2-c2cccc3ccccc23)cc(OC)c1 [Entry 242],> 100
